# Source: PMC2408617, “Gametogenesis in Malaria Parasites Is Mediated by the cGMP-Dependent Protein Kinase” (PLoS Biology, 2008)
# “Also recorded” adds a separate entry of the source.
# Legend:
# [1] = system: P. falciparum asexual blood stages; experiment: Asexual parasite growth inhibition, [3H]-hypoxanthine incorporation; assay type: cell-based, Plasmodium falciparum; details: unpublished data
# Description: Asexual parasite growth assays were carried out to obtain the IC50 of test compounds using inhibition of incorporation of [^3H]-hypoxanthine, and to compare growth rates between transfected clones. Briefly, in 96-well plates, each test well was dosed at early trophozoite stage with 10 μl of [^3H]-hypoxanthine (GE Healthcare) to a final concentration of 0.2 μCi. The radioactivity of the [^3H]-hypoxanthine incorporated into parasite nucleic acid over 24 h was determined relative to the WT controls using a Wallac 1450 Microbeta scintillation β-counter (Perkin-Elmer). This assay was done in triplicate and repeated at least three times.
# [2] = molecular target: T1, PfPKGT618Q (Plasmodium falciparum, UniProt Q8I719, T618Q); experiment: Recombinant PKG activity assay, T618Q mutant; assay type: biochemical
# T1 construct: The gene encoding full-length PfPKG was cloned into the pTrcHis expression plasmid (Invitrogen); His tag (from pTrcHis vector); made in house; host or cells: Escherichia coli
# Description: (§1) Figure 4 Substitution of a Key Active Site Threonine Residue Confers Compound 1 Insensitivity to Recombinant PfPKG (A) An alignment of regions of PfPKG in the ATP-binding pocket, thought to interact with compound 1, with those of other apicomplexans. Conserved active site residues highlighted in grey were predicted to approach compound 1 in a model of the Eimeria tenella PKG [29] (EtPKG). The threonine residue (T618), substituted in PfPKG in this study, is highlighted in grey and marked with an asterisk. Amino acid sequences are numbered to the right of the blocks of sequence. (B) Dose-response curves showing the effect of compound 1 on recombinant PKG enzyme activity assayed in the presence of 10 μM cGMP. Red diamonds indicate full-length WT PfPKG; black triangles, mutated PfPKG with T618 replaced by a glutamine residue; and blue squares, mutated PfPKG with T618 replaced by a methionine residue.
# (§2) The activity of recombinant and native PKG was measured using a modification of standard procedures. The gene encoding full-length PfPKG was cloned into the pTrcHis expression plasmid (Invitrogen). Substitution of specific amino acids of PfPKG was carried out using a QuickChange Multi Site-Directed Mutagenesis kit (Stratagene) according to the manufacturer's instructions. Expression, affinity purification of E. coli–expressed recombinant proteins, and PKG activity assays were performed as previously described. All experiments were performed at least twice in triplicate. PKG measurements in native P. falciparum proteins were performed using an adaptation of a previously described assay. Briefly, ring stage parasites were exposed to 0.15% saponin solution in PBS to free the parasites from their host cells. […] Radiolabelled peptide was detected on 96-well multiscreen phosphocellulose plates (MAPH-NOB; Millipore) by scintillation counting on a Wallac 1450 Microbeta scintillation β-counter (Perkin-Elmer). […]
# [3] = molecular target: T2, PfPKGT618M (Plasmodium falciparum, UniProt Q8I719, T618M); experiment: Recombinant PKG activity assay, T618M mutant; assay type: biochemical; details: versus WT
# T2 construct: The gene encoding full-length PfPKG was cloned into the pTrcHis expression plasmid (Invitrogen); His tag (from pTrcHis vector); made in house; host or cells: Escherichia coli
# Description: as §1
# The activity of recombinant and native PKG was measured using a modification of standard procedures. The gene encoding full-length PfPKG was cloned into the pTrcHis expression plasmid (Invitrogen). […] Radiolabelled peptide was detected on 96-well multiscreen phosphocellulose plates (MAPH-NOB; Millipore) by scintillation counting on a Wallac 1450 Microbeta scintillation β-counter (Perkin-Elmer). […]
# [4] = system: P. falciparum gametocytes (WT / Pfrh3- control); experiment: Gametogenesis assay: rounding up, WT/control gametocytes; assay type: cell-based, Plasmodium falciparum
# Description: (§3) P. falciparum gametocytes were produced from the 3D7 clone in human A+ erythrocytes with 10% human serum (National Blood Service), and enriched using Nycodenz (Nycoprep 1.077; Axis-Shield) centrifugation as previously described. For gametogenesis, cells were resuspended at 5 × 10^6 parasites per millilitre and induced with either 20 μM XA or 25–400 μM zaprinast in complete medium, and a reduction (of >5 °C) in temperature. For gametogenesis assays, 10 min post induction, cells were mounted on a wet smear. […] Test reagents including zaprinast, BAPTA-AM, compound 1, and compound 2 were resuspended in DMSO as stock solutions and diluted in complete medium for gametogenesis assays, with the XA stock resuspended in RPMI 1640. The maximum final DMSO concentration in the gametogenesis medium was 0.4%, which was used as a negative control. […] Compound 1 and compound 2 were added at the point of activation with either XA or zaprinast, whereas cells were preincubated with 100 μM BAPTA-AM as previously described. Statistical multivariate analysis was carried out using Poisson regression (Stata 9.2; StataCorp) to compare the effects of genetic background (mutant vs. WT) and experimental replicate (included as categorical data in the analysis) on the rates of rounding up at individual drug concentrations. For each drug concentration, the mutants were tested separately against the WT control, and the resultant output was anti-logged to give the relative risk (and 95% confidence interval) for rounding up with genetic background.
# [5] = system: PfPKGT618Q gametocytes; experiment: Gametogenesis assay: rounding up, PfPKGT618Q gametocytes; assay type: cell-based, Plasmodium falciparum; details: for RR, relative risk of rounding up, T618Q vs WT: Poisson regression
# Description: as §3
# (§4) Supplementary file pbio.0060139.st002.doc: Table S2 Poisson Regression Analysis for Compound 1 Sensitivity of Rounding Up of Both Mutants Compared to WT Each rounding-up measurement was made by counting 200 cells and scoring for rounding up (or not rounding up). At each compound 1 concentration, rounding-up replicate counts for both clones were compared to WT values separately by Poisson regression analysis using the Stata 9.2 package (StataCorp). Where n < 2 (indicated by n.d.), data were excluded from the analysis. Compound 1 concentration (comp1) is shown in micromolar. The p-values from this analysis and the relative risk (RR) of rounding up with genetic background (and 95% confidence intervals [CI]) are shown. (38 KB DOC) Click here for additional data file.
# [6] = system: PfPKGT618M gametocytes; experiment: Gametogenesis assay: rounding up, PfPKGT618M gametocytes; assay type: cell-based, Plasmodium falciparum; details: for RR, relative risk of rounding up, T618M vs WT: Poisson regression
# Description: as §3, §4
# [7] = system: P. falciparum gametocytes; experiment: Gametogenesis assay: exflagellation; assay type: cell-based, Plasmodium falciparum
# Description: as §3
# [8] = system: cGMP-dependent kinase activity in P. falciparum lysates; experiment: Native cGMP-dependent kinase activity in cell lysates; assay type: biochemical, Plasmodium falciparum; details: control versus PfPKGT618Q lysates
# Description: as §2, with “cells. Both gametocyte and ring stage parasite pellets were lysed in HBS buffer (50 mM Hepes [pH 7.4], 1 mM EDTA, 1% Nonidet P-40, 10 mM NaF, 0.1 mM sodium orthovanadate, 1 mM dithiotreitol) supplemented with a 1/100 dilution of Sigma-Aldrich Protease Inhibitor Cocktail. Parasite lysis was confirmed by microscopic examination of Giemsa-stained thin smears.” for “cells.”
# [9] = system: Eimeria; details: cited from earlier work
# [10] = system: T. gondii; details: cited from earlier work
# [11] = system: P. berghei; details: cited from earlier work
# [12] = 1–5 μM compound, XA stimulation
# T1 sequence (Q8I719 whole entry T618Q): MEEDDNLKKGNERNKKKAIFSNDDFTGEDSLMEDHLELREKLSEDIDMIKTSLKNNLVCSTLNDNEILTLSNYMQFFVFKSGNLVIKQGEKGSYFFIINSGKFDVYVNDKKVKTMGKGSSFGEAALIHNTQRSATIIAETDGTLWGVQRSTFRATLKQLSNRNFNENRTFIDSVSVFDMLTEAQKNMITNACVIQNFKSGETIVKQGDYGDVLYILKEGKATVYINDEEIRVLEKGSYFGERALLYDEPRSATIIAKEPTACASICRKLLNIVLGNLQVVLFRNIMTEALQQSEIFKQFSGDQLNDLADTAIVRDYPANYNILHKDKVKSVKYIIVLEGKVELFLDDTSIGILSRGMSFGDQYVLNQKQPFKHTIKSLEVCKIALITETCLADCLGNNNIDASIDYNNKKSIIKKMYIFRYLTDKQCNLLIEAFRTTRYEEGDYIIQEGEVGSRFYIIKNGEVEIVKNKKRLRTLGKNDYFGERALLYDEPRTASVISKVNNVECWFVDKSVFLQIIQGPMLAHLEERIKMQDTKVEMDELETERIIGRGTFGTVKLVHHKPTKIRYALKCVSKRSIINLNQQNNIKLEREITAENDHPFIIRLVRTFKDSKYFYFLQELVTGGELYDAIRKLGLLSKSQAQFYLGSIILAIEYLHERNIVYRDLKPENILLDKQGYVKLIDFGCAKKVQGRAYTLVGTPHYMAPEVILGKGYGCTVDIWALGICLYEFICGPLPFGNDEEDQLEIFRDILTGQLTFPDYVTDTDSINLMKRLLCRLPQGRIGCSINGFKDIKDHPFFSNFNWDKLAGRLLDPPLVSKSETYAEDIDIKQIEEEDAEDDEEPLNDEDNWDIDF
# T2 sequence (Q8I719 whole entry T618M): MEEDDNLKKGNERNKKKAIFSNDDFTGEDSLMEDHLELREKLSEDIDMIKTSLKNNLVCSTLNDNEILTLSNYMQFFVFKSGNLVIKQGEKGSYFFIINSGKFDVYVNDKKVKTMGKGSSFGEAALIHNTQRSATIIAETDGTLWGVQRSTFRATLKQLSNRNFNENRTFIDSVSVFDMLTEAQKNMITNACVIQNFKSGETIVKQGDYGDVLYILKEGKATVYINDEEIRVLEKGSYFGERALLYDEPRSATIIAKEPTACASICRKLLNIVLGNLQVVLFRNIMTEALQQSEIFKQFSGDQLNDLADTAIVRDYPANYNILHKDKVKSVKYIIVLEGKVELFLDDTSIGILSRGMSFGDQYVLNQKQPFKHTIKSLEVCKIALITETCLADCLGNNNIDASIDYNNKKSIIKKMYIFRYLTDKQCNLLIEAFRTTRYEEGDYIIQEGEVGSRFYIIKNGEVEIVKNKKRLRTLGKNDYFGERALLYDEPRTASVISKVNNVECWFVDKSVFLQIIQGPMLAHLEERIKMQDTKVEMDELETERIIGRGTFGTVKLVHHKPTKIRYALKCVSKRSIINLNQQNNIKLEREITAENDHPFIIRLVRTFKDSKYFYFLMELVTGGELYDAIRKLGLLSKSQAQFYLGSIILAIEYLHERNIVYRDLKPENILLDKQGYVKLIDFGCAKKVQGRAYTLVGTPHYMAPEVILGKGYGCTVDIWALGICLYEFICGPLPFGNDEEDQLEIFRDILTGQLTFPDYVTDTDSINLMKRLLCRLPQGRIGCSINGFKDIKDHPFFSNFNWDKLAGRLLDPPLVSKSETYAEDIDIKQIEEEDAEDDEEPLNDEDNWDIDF
compound,measurement,setting,value
CN1CCC(c2cc(-c3ccncc3)c(-c3ccc(F)cc3)[nH]2)CC1 [compound 1],IC50,[1],2.7 ± 0.17 µM
same,IC50,"[2]; 10 μM cGMP, read-out: IC50, PfPKGT618Q recombinant enzyme",17.8 ± 4.7 µM
same,"less sensitive, PfPKGT618Q versus WT recombinant enzyme",[2]; ratio of IC50 values,"over 3,000 times"
same,decreased sensitivity conferred by T618Q in the recombinant protein,[2]; versus WT,"> 3,000 fold"
same,increase in sensitivity of T618M recombinant enzyme,[3],< 4 fold
same,gametocytes in which change of shape is prevented,[4],over 90%
same,rounding up of control gametocytes,[4]; [12],reduced rounding up to background levels
same,inhibition of rounding up,[4]; control gametocytes stimulated with XA (or zaprinast),inhibited by compound 1 in a dose-dependent manner
same,inhibitory effects on rounding up of PfPKGT618Q gametocytes,"[5]; 2 μM, stimulation with zaprinast or XA",absence of inhibitory effects
same,rounding up of PfPKGT618Q gametocytes,[5]; [12],rounded up to almost normal levels
same,"RR, relative risk of rounding up, T618Q vs WT",[5]; compound 1 0.1 μM,1.031
same,"RR, relative risk of rounding up, T618Q vs WT",[5]; compound 1 2 μM,1.827
same,"RR, relative risk of rounding up, T618Q vs WT",[5]; compound 1 5 μM,2.248
same,"RR, relative risk of rounding up, T618Q vs WT",[5]; compound 1 6 μM,1.974
same,"RR, relative risk of rounding up, T618Q vs WT",[5]; compound 1 8 μM,1.910
same,"RR, relative risk of rounding up, T618Q vs WT",[5]; compound 1 10 μM,1.649
same,"RR, relative risk of rounding up, T618Q vs WT",[5]; compound 1 20 μM,1.283
same,lower sensitivity of PfPKGT618Q gametocytes than control cells (rounding up),"[5]; range of inhibitor concentrations, approximately",10–20 fold
same,"RR, relative risk of rounding up, T618M vs WT",[6]; compound 1 0.1 μM,1.014
same,"RR, relative risk of rounding up, T618M vs WT",[6]; compound 1 2 μM,1.020
same,"RR, relative risk of rounding up, T618M vs WT",[6]; compound 1 4 μM,0.946
same,"RR, relative risk of rounding up, T618M vs WT",[6]; compound 1 5 μM,1.010
same,"RR, relative risk of rounding up, T618M vs WT",[6]; compound 1 6 μM,1.002
same,"RR, relative risk of rounding up, T618M vs WT",[6]; compound 1 20 μM,0.861
same,difference in sensitivity of PfPKGT618M line compared to control cells,[6]; rounding up and exflagellation,no significant difference in sensitivity
same,inhibition of exflagellation,[7]; gametocytes stimulated with XA or zaprinast,inhibited by compound 1 in a dose-dependent manner; also recorded: inhibited exflagellation in a dose-dependent manner
same,difference in sensitivity of exflagellation between control and PfPKGT618Q cell lines,[7]; unpublished data,no significant difference in sensitivity
same,sensitivity of cGMP-dependent kinase activity in control and mutant lysates,[8],equivalent levels of sensitivity
same,effect on Eimeria infection in chickens,[9],cure
same,effect on infection by T. gondii in mice,[10],cure
same,effect on P. berghei infections in mice,[11],delays the onset
